Experimental data reported in patent publication US8961873B2, “Antinfection protecting healthcare workers to prevent spreading of communicable and nosocomial infections” (priority 2011, dated 2015).

Details: the rest remains in inactive suspension

Compound: [Ca+2].[F-].[F-] [CaF2, Calcium-Fluoride]
- amount going into solution in water: 16 ppm
